Measured values: PMC8404199, “Structure–Activity Relationships of Triple-Action Platinum(IV) Prodrugs with Albumin-Binding Properties and Immunomodulating Ligands” (Journal of Medicinal Chemistry, 2021)
Read-outs that look alike come from different tables or passages of the source.

Legend:
[1] = test system: human embryonic kidney cells (HEK293); test: MTT cytotoxicity assay in non-malignant HEK293 cells; type: cell-based; settings: 72 h
Procedure: (§1) The cells were seeded at 3500–6000 cells/well in 96-well plates depending on the proliferation rate of the respective cell line and allowed to recover for 24 h. Subsequently, the cells were treated at indicated concentrations for 48 or 72 h. Cells were additionally incubated with 5-fold equimolar concentrations of ascorbic acid to increase the reduction rate of the compounds. Cell viability was measured by the MTT-based vitality assay (EZ4U; Biomedica, Vienna, Austria), following the manufacturer’s recommendations.

[2] = test system: human hepatic cell line (WRL68); test: MTT cytotoxicity assay in non-malignant WRL68 cells; type: cell-based; settings: 72 h
Procedure: as §1

[3] = test system: SKOV3 cancer cells; test: Long-term cytotoxicity assay (crystal violet) in SKOV3 cells; type: cell-based, human; settings: 168 h, crystal violet stain, mean ± SD
Procedure: SKOV3 cells were seeded in duplicates at 5000 cells/well in 24-well plates and allowed to recover for 24 h. Subsequently, the cells were treated at the indicated concentrations for 168 h. Cells were fixed with ice-cold methanol (20 min at 4 °C), washed with PBS, and stained with crystal violet. Subsequently, colony formation was inspected, and the fluorescence signal was detected using Typhoon Trio imager (GE Healthcare, Little Chalfont, UK) at 610/30 nm BP and analyzed by ImageJ software.

[4] = test system: human SKOV3 cancer cells; test: MTT cytotoxicity assay in SKOV3 cells; type: cell-based; settings: 72 h incubation
Procedure: as §1

[5] = test system: murine CT26 colon cancer cells; test: MTT cytotoxicity assay in CT26 cells; type: cell-based
Procedure: (§2) Cells were additionally incubated with 5-fold equimolar concentrations of ascorbic acid to increase the reduction rate of the compounds. Cell viability was measured by the MTT-based vitality assay (EZ4U; Biomedica, Vienna, Austria), following the manufacturer’s recommendations.

[6] = target: T1, albumin (Bos taurus, UniProt P02769); test: SEC-ICP-MS albumin binding and serum stability in fetal calf serum; type: in vitro ADME; settings: FCS + 150 mM phosphate buffer pH 7.4, 37 °C
T1 construct: FCS was purchased from Sigma-Aldrich and buffered with 150 mM phosphate buffer (pH 7.4); tissue Sigma-Aldrich; host or cells: fetal calf serum
Procedure: FCS was purchased from Sigma-Aldrich and buffered with 150 mM phosphate buffer (pH 7.4) to guarantee a stable pH. The maleimide-bearing platinum(IV) complexes were dissolved in 10% DMF in 150 mM phosphate buffer (pH 7.4) to 1 mM and diluted 1:10 in serum to obtain a final concentration of 100 μM. The samples were then incubated in the autosampler at 37 °C for 24 h and analyzed every 1 h. Between each sample, a pure water blank was measured. For SEC–ICP–MS measurements, an Agilent 1260 Infinity system coupled to an Agilent 7800 ICP–MS equipped with a dynamic reaction cell was used. Oxygen (purity 5.5, Messer Austria GmbH, Gumpoldskirchen, Austria) was used as reaction gas.

[7] = log D7.4 determination by shake flask method and ICP-MS; type: physicochemical; settings: n-octanol/phosphate buffer pH 7.4, Pt by ICP-MS
Procedure: 50 mM stock solutions of the succinimide complexes in DMF were diluted in phosphate buffer (20 mM, pH 7.4, pre-saturated with n-octanol) to a final concentration of 50 μM drug and 0.1% DMF. The platinum content of these aqueous solutions was measured by ICP–MS (see above). The solutions were mixed 1:1 with n-octanol and shaken on a 360° rotatable rack for 3 h. The solutions were centrifuged for 5 min (860g, RT), the aqueous layers were carefully removed, and their Pt content was measured by ICP–MS. Experiments were performed and measured in duplicates, and averages were used for further calculations. log D7.4 values were calculated by the following equation [drawing 1]

[8] = UHPLC reduction experiments with L-ascorbic acid; type: physicochemical; settings: 1 mM complex, 10-fold excess AA, phosphate buffer pH 7.4, 1% DMF, 20 °C
Procedure: The platinum(IV)–succinimide complexes were dissolved in 2% DMF in phosphate buffer (500 mM, pH 7.4) to a final concentration of 2 mM. The solutions were then mixed 1:1 with a 20 mM stock of L-ascorbic acid in phosphate buffer (500 mM, pH 7.4) to obtain final concentrations of 1 mM complex, 10 mM L-ascorbic acid, and 1% DMF. The samples were incubated at 20 °C and measured on a Dionex UltiMate 3000 RS UPLC system with a Waters Acquity UPLC BEH C18 column (3 × 50 mm, pore size 1.7 μm) and absorption detection at 220 nm. Data points were taken at t = 0 and every 30 min for 6 h.

[9] = test system: SKOV3 cell lysates; test: Reduction and 1-MDT release in SKOV3 lysates; type: in vitro ADME, human; settings: 100 μM, 37 °C
Procedure: SKOV3 cells were grown in four T225 […] cell culture flasks to reach a high cell number. On the day of cell lysate isolation, cells were washed with PBS, scraped from the surface, and centrifuged. Each cell pellet was lysed in ∼160 μL lysis buffer (15 mM NaCl 0.5% Triton X, ultrapure) and incubated on ice for 1 h. The samples were then centrifuged for 15 min at 14,000 rpm (4 °C), and the cleared lysate was pooled and kept at −80 °C until analysis. Cell lysates were treated with 2 mM stock solutions of respective complexes in 4% DMF and phosphate buffer (100 mM, pH 7.4) to obtain a final compound concentration of 100 μM and incubated at 37 °C. After 0, 4, 24, and 72 h, three volume equivalents of cold MeOH were added to sample aliquots. Samples were stored at 4 °C for 10 min and centrifuged (15,080g, 4 °C, 10 min). LC–MS analysis of the supernatant was performed on an Agilent 1260 Infinity system using a Waters Atlantis T3 column (150 mm × 4.6 mm) and absorption detection at 230 nm, coupled to a Bruker amaZon SL ESI-IT mass spectrometer. Milli-Q water, containing 0.1% formic acid, and acetonitrile, containing 0.1% formic acid, were used as eluents. A gradient of 1–99% acetonitrile in 20 min was used.

[10] = test system: VM7 melanoma cancer cells; test: MTT cytotoxicity assay in VM7 cells; type: cell-based, human; settings: 72 h
Procedure: as §1

[11] = test system: human HCT116 colon cancer cells; test: MTT cytotoxicity assay in HCT116 cells; type: cell-based
Procedure: as §2

[12] = with 5 eq. AA, read-out: SKOV3 IC50 values + 5 eq. AA, mean
[13] = without AA, read-out: SKOV3 IC50 values, mean
[14] = 48 h incubation, with 5 equiv AA, read-out: CT26 IC50 values +AA, mean ± SD
[15] = 48 h incubation, without AA, read-out: CT26 IC50 values, mean ± SD
[16] = 72 h incubation, with 5 eq. AA, read-out: CT26 IC50 values + 5 eq. AA, mean
[17] = 72 h incubation, without AA, read-out: CT26 IC50 values, mean
[18] = 48 h incubation, with 5 equiv AA, read-out: HCT116 IC50 values +AA, mean ± SD
[19] = 48 h incubation, without AA, read-out: HCT116 IC50 values, mean ± SD
[20] = 72 h incubation, with 5 eq. AA, read-out: HCT116 IC50 values + 5 eq. AA, mean
[21] = 72 h incubation, without AA, read-out: HCT116 IC50 values, mean

T1 sequence (P02769 25-607): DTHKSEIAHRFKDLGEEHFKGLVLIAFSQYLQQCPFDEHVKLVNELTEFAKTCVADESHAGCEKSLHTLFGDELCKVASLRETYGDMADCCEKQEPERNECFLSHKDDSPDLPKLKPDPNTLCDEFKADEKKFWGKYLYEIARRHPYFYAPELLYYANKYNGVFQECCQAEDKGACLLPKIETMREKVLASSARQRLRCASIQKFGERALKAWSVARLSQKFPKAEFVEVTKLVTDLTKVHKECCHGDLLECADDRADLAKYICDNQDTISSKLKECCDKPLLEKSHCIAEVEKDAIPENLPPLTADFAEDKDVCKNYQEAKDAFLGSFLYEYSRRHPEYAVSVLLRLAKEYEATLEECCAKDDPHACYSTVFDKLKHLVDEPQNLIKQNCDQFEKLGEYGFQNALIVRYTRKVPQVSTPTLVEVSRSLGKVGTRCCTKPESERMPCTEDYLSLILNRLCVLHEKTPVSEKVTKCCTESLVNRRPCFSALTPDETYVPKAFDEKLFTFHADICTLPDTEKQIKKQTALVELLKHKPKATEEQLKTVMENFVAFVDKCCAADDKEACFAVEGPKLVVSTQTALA

SMILES	IC50 [1]	IC50 [2]	IC50 [3]	IC50 [4, 12]	IC50 [4, 13]	IC50 [5, 14]	IC50 [5, 15]	IC50 [5, 16]	IC50 [5, 17]	albumin binding in serum (in words) [6]	log D7.4 [7]	time until complex completely reduced [8]	1-MDT release after 72 h [9]	IC50 [10]	IC50 [11, 18]	IC50 [11, 19]	IC50 [11, 20]	IC50 [11, 21]	other results
Cn1cc(CC([NH3+])C(=O)[O][Pt]23([O]C(=O)NCCCCCN4C(=O)CCC4=O)([NH]C4CCCCC4[NH]2)[O]C(=O)C(=O)[O]3)c2ccccc21.O=C([O-])C(F)(F)F [SucCa/IdoEs, (OC-6-34)-[(R)-2-Ammonio-3-(1-methyl-1H-indol-3-yl)propanoato][(1R,2R)-1,2-cyclohexanediamino][5-(2,5-dioxo-2,5-dihydro-1H-pyrrolidin-1-yl)pentylcarbamato]oxalatoplatinum(IV) Trifluoroacetate]	33.2 µM	76.4 µM	18.4 ± 3 µM	> 100 µM	> 100 µM	10.8 ± 1.04 µM	60.1 ± 6.49 µM	16.9 µM	31.9 µM	significant binding to albumin (tR ~4 min) could be observed for any of the compounds	–0.16	≤ 2 h	~100%	> 100 µM	7.36 ± 1.14 µM	26 ± 3.21 µM	5.35 µM	7.23 µM	–
Cn1cc(C[C@@H](NC(=O)[O][Pt]2([O]C(=O)CCCCCN3C(=O)CCC3=O)[O]C(=O)C(=O)[O]2)C(=O)O)c2ccccc21.N[C@@H]1CCCC[C@H]1N [SucEs/IdoCa]	77.5 µM	> 100 µM	53.1 ± 4.5 µM	> 100 µM	> 100 µM	26.7 ± 0.75 µM	> 100 µM	46 µM	90.5 µM	significant binding to albumin (tR ~4 min) could be observed for any of the compounds	–2.02	–	–	> 100 µM	35.4 ± 6.54 µM	> 100 µM	20.8 µM	82.1 µM	ratio (IC50 without AA / with AA), CT26 ([5]; 48 h): ≥3; ratio (IC50 without AA / with AA), CT26 ([5]; 72 h): 1.97; complex intact after 6 h [8]: 90%; still present as platinum(IV) species after 72 h [9]: ~50%; ratio (IC50 without AA / with AA), HCT116 ([11]; 48 h): ≥2.8; ratio (IC50 without AA / with AA), HCT116 ([11]; 72 h): 3.94
Cn1cc(C[C@@H]([NH3+])C(=O)[O][Pt]2([O]C(=O)CCCCCN3C(=O)CCC3=O)[O]C(=O)C(=O)[O]2)c2ccccc21.N[C@@H]1CCCC[C@H]1N.O=C([O-])C(F)(F)F [SucEs/IdoEs, (OC-6-44)-[(R)-2-Ammonio-3-(1-methyl-1H-indol-3-yl)propanoato][(1R,2R)-1,2-cyclohexanediamino][6-(2,5-dioxopyrrolidin-1-yl)hexanoato]oxalatoplatinum(IV) Trifluoroacetate]	44.2 µM	81.7 µM	19.4 ± 1.2 µM	> 100 µM	> 100 µM	–	91.5 ± 3.84 µM	18.1 µM	44.9 µM	significant binding to albumin (tR ~4 min) could be observed for any of the compounds	–0.30	≤ 2 h	~100%	> 100 µM	6.94 ± 0.33 µM	22.8 ± 1.15 µM	4.89 µM	5.45 µM	–
